Key:
[1] = refractive index (Na D-line) (dimensionless); xn = mol fraction of the nth substance listed; conditions: 101 kPa, Liquid
[2] = xn = mol fraction of the nth substance listed; conditions: 101 kPa, Liquid

CC(=O)OCCC(C)C [3-methylbutyl ethanoate] + CCc1ccccc1
refractive index, [1], Standard Abbe refractometry
Conditions	x1 = 0.0851	x1 = 0.1684	x1 = 0.2613	x1 = 0.3719	x1 = 0.4584	x1 = 0.538	x1 = 0.6532	x1 = 0.7513	x1 = 0.8475	x1 = 0.9401
303.15 K	1.4802	1.4701	1.4593	1.4471	1.4376	1.4291	1.4177	1.4112	1.4041	1.3983
313.15 K	1.4781	1.4676	1.4565	1.4425	1.4342	1.4276	1.4168	1.4099	1.4035	1.3965

[2]
Conditions	mass density, 303.15 K [kg/m3]	mass density, 313.15 K [kg/m3]	viscosity, 303.15 K [mPa·s]	viscosity, 313.15 K [mPa·s]
x1 = 0.0851	856.9	848.8	0.597	0.533
x1 = 0.1684	858	849.1	0.605	0.541
x1 = 0.2613	858.4	849.7	0.615	0.549
x1 = 0.3719	859	850.3	0.629	0.559
x1 = 0.4584	859.6	850.9	0.639	0.567
x1 = 0.538	860.1	851.3	0.649	0.575
x1 = 0.6532	861.1	851.6	0.666	0.588
x1 = 0.7513	861.6	851.8	0.681	0.6
x1 = 0.8475	862	852.1	0.703	0.619
x1 = 0.9401	862.3	852.3	0.726	0.638

CC(=O)OCCC(C)C [3-methylbutyl ethanoate] + Cc1ccc(C)cc1
refractive index, [1], Standard Abbe refractometry
Conditions	x1 = 0.096	x1 = 0.1713	x1 = 0.2823	x1 = 0.3819	x1 = 0.4503	x1 = 0.5438	x1 = 0.6472	x1 = 0.7467	x1 = 0.8487	x1 = 0.9398
303.15 K	1.4821	1.4749	1.4645	1.4554	1.4495	1.4397	1.4293	1.4193	1.41	1.4017
313.15 K	1.4811	1.474	1.4621	1.4523	1.4454	1.4356	1.4248	1.4147	1.4056	1.3984

[2]
Conditions	mass density, 303.15 K [kg/m3]	mass density, 313.15 K [kg/m3]	viscosity, 303.15 K [mPa·s]	viscosity, 313.15 K [mPa·s]
x1 = 0.096	852.4	844.8	0.573	0.517
x1 = 0.1713	853.6	845.9	0.584	0.525
x1 = 0.2823	854.5	846.3	0.6	0.537
x1 = 0.3819	856.7	847.5	0.617	0.549
x1 = 0.4503	857.8	848.7	0.628	0.556
x1 = 0.5438	858.1	849.6	0.645	0.57
x1 = 0.6472	858.7	850.1	0.664	0.584
x1 = 0.7467	859.7	850.7	0.684	0.6
x1 = 0.8487	860.1	851.3	0.704	0.615
x1 = 0.9398	861	851.6	0.722	0.634

CC(=O)OCCC(C)C [3-methylbutyl ethanoate] + Cc1cccc(C)c1
refractive index, [1], Standard Abbe refractometry
Conditions	x1 = 0.0877	x1 = 0.1726	x1 = 0.3736	x1 = 0.4421	x1 = 0.5478	x1 = 0.657	x1 = 0.7478	x1 = 0.8501	x1 = 0.9465
303.15 K	1.483	1.4745	1.4549	1.4487	1.4398	1.4297	1.4207	1.4101	1.4014
313.15 K	1.4811	1.4724	1.452	1.4456	1.435	1.4248	1.4157	1.4056	1.3985

[2]
Conditions	mass density, 303.15 K [kg/m3]	mass density, 313.15 K [kg/m3]	viscosity, 303.15 K [mPa·s]	viscosity, 313.15 K [mPa·s]
x1 = 0.0877	855.8	847.3	0.561	0.502
x1 = 0.1726	856.5	848.2	0.572	0.51
x1 = 0.3736	858.2	849.5	0.605	0.538
x1 = 0.4421	858.4	849.6	0.619	0.549
x1 = 0.5478	858.8	849.8	0.643	0.568
x1 = 0.657	859.3	850.3	0.666	0.587
x1 = 0.7478	860.1	851.1	0.687	0.603
x1 = 0.8501	861	851.9	0.708	0.623
x1 = 0.9465	861.9	852.8	0.727	0.638

CC(=O)OCCC(C)C [3-methylbutyl ethanoate] + Cc1ccccc1C
Conditions	mass density, [2] [kg/m3]	refractive index, [1]	viscosity, [2] [mPa·s]
303.15 K, x1 = 0.0856	869.7	1.4903	0.705
303.15 K, x1 = 0.1739	869.5	1.4806	0.707
303.15 K, x1 = 0.2554	868.2	1.4721	0.709
303.15 K, x1 = 0.3538	867.8	1.462	0.712
303.15 K, x1 = 0.445	867.4	1.453	0.714
303.15 K, x1 = 0.5481	866	1.4436	0.718
303.15 K, x1 = 0.6564	865	1.4319	0.722
303.15 K, x1 = 0.7531	864.1	1.4217	0.726
303.15 K, x1 = 0.8542	863.7	1.4113	0.731
303.15 K, x1 = 0.9538	863.2	1.4018	0.738
313.15 K, x1 = 0.0856	861.4	1.488	0.622
313.15 K, x1 = 0.1739	860.8	1.4779	0.623
313.15 K, x1 = 0.2554	859.8	1.4695	0.623
313.15 K, x1 = 0.3538	859.1	1.458	0.624
313.15 K, x1 = 0.445	858.4	1.4486	0.625
313.15 K, x1 = 0.5481	856.7	1.4375	0.627
313.15 K, x1 = 0.6564	855.8	1.4258	0.631
313.15 K, x1 = 0.7531	855.1	1.4157	0.635
313.15 K, x1 = 0.8542	854.7	1.4062	0.64
313.15 K, x1 = 0.9538	853.9	1.3961	0.646

COC(=O)c1ccccc1 [methyl benzoate] + CCc1ccccc1
refractive index, [1], Standard Abbe refractometry
Conditions	x1 = 0.1033	x1 = 0.1927	x1 = 0.2952	x1 = 0.3974	x1 = 0.4947	x1 = 0.5866	x1 = 0.6963	x1 = 0.7953	x1 = 0.9016	x1 = 0.951
303.15 K	1.4911	1.4933	1.4945	1.4958	1.4968	1.4978	1.5022	1.5054	1.509	1.5092
313.15 K	1.4888	1.49	1.4918	1.4928	1.4937	1.4955	1.4985	1.5014	1.5044	1.5064

[2]
Conditions	mass density, 303.15 K [kg/m3]	mass density, 313.15 K [kg/m3]	viscosity, 303.15 K [mPa·s]	viscosity, 313.15 K [mPa·s]
x1 = 0.1033	877.9	870.2	0.656	0.583
x1 = 0.1927	898.9	890.3	0.701	0.641
x1 = 0.2952	921.6	912.7	0.784	0.687
x1 = 0.3974	943.6	935	0.857	0.75
x1 = 0.4947	963.3	954.1	0.947	0.824
x1 = 0.5866	982.3	973.7	1.043	0.925
x1 = 0.6963	1000.3	992	1.17	1.048
x1 = 0.7953	1023.3	1010.3	1.308	1.165
x1 = 0.9016	1053.3	1043.3	1.464	1.287
x1 = 0.951	1056.8	1047.4	1.566	1.346

COC(=O)c1ccccc1 [methyl benzoate] + Cc1ccc(C)cc1
refractive index, [1], Standard Abbe refractometry
Conditions	x1 = 0.0958	x1 = 0.2055	x1 = 0.3011	x1 = 0.399	x1 = 0.4951	x1 = 0.5988	x1 = 0.6973	x1 = 0.7846	x1 = 0.9027	x1 = 0.948
303.15 K	1.492	1.4939	1.4947	1.4959	1.4969	1.4982	1.5012	1.5055	1.5122	1.5104
313.15 K	1.4913	1.4922	1.4932	1.4945	1.4952	1.4961	1.4989	1.5014	1.5088	1.509

[2]
Conditions	mass density, 303.15 K [kg/m3]	mass density, 313.15 K [kg/m3]	viscosity, 303.15 K [mPa·s]	viscosity, 313.15 K [mPa·s]
x1 = 0.0958	873	864.7	0.616	0.551
x1 = 0.2055	898.1	889.5	0.693	0.609
x1 = 0.3011	919.3	911.1	0.759	0.67
x1 = 0.399	940.9	932.3	0.839	0.728
x1 = 0.4951	961.9	953.1	0.922	0.803
x1 = 0.5988	984.4	975.7	1.033	0.889
x1 = 0.6973	1006.2	1000.4	1.152	0.992
x1 = 0.7846	1024.4	1013	1.269	1.093
x1 = 0.9027	1056	1047.3	1.45	1.253
x1 = 0.948	1059.2	1050.3	1.561	1.322

COC(=O)c1ccccc1 [methyl benzoate] + Cc1cccc(C)c1
refractive index, [1], Standard Abbe refractometry
Conditions	x1 = 0.1071	x1 = 0.203	x1 = 0.3034	x1 = 0.3924	x1 = 0.4909	x1 = 0.5978	x1 = 0.6867	x1 = 0.8125	x1 = 0.8734	x1 = 0.9518
303.15 K	1.4933	1.4943	1.4954	1.4962	1.4973	1.5004	1.5033	1.5069	1.5093	1.5107
313.15 K	1.4911	1.4919	1.4927	1.4933	1.4941	1.496	1.4987	1.502	1.504	1.5064

[2]
Conditions	mass density, 303.15 K [kg/m3]	mass density, 313.15 K [kg/m3]	viscosity, 303.15 K [mPa·s]	viscosity, 313.15 K [mPa·s]
x1 = 0.1071	878.7	870.6	0.609	0.544
x1 = 0.203	900.2	891.9	0.672	0.598
x1 = 0.3034	922.3	914.2	0.739	0.654
x1 = 0.3924	941.4	933.2	0.824	0.729
x1 = 0.4909	962.7	954.4	0.923	0.804
x1 = 0.5978	985.7	977.1	1.023	0.892
x1 = 0.6867	1004.6	995.8	1.134	0.978
x1 = 0.8125	1029.6	1021.9	1.316	1.122
x1 = 0.8734	1043.8	1034.8	1.403	1.191
x1 = 0.9518	1059.6	1050.7	1.565	1.317

— the NIST ThermoML archive (doi:10.1021/je800325d)
